Experimental data: patent US20050004130A1, “New metabotropic glutamate receptor compounds” (AstraZeneca and NPS Pharmaceuticals, Inc., priority 2003, published 2005)

Assays:
recombinant mGluR1 = target: T1, recombinant mGluR1 (Homo sapiens, UniProt Q13255); test: Assay of Group I receptor antagonist activity (FLIPR [Ca2+]i mobilization; secondary IP3 turnover) in cells expressing mGluR1; assay type: cell-based
T1 construct: expressed in transfected cells
Description: (§1) For FLIPR analysis, cells expressing human mGluR5d or recombinant mGluR1 as described in WO97/05252 were seeded on collagen coated clear bottom 96-well plates with black sides and analysis of [Ca^2+]i mobilization was done 24 h after seeding. FLIPR experiments were done using a laser setting of 0.800 W and a 0.4 second CCD camera shutter speed. Each FLIPR experiment was initiated with 160 μl of buffer present in each well of the cell plate. After each addition of the compound, the fluorescence signal was sampled 50 times at 1 second intervals followed by 3 samples at 5 second intervals. Responses were measured as the peak height of the response within the sample period. EC50 and IC50 determinations were made from data obtained from 8-point concentration response curves (CRC) performed in duplicate. Agonist CRC were generated by scaling all responses to the maximal response observed for the plate. […]
(§2) We have validated a secondary functional assay for mGluR5d or recombinant mGluR1 as described in WO97/05252 based on Inositol Phosphate (IP3) turnover. IP3 accumulation is measured as an index of receptor mediated phospholipase C turnover. […] Antagonist activity was determined by pre-incubating test compounds for 15 min, then incubating in the presence of glutamate (80 μM) or DHPG (30 μM) for 30 min. […]

human mGluR5d = target: T2, human mGluR5d (Homo sapiens, UniProt P41594); test: Assay of Group I receptor antagonist activity (FLIPR [Ca2+]i mobilization; secondary IP3 turnover) in cells expressing mGluR5d; assay type: cell-based; conditions: read-out: mGluR5 IC50
T2 construct: expressed in transfected cells
T2 sequence (P41594 21-942 isoform P41594-3 limits assumed): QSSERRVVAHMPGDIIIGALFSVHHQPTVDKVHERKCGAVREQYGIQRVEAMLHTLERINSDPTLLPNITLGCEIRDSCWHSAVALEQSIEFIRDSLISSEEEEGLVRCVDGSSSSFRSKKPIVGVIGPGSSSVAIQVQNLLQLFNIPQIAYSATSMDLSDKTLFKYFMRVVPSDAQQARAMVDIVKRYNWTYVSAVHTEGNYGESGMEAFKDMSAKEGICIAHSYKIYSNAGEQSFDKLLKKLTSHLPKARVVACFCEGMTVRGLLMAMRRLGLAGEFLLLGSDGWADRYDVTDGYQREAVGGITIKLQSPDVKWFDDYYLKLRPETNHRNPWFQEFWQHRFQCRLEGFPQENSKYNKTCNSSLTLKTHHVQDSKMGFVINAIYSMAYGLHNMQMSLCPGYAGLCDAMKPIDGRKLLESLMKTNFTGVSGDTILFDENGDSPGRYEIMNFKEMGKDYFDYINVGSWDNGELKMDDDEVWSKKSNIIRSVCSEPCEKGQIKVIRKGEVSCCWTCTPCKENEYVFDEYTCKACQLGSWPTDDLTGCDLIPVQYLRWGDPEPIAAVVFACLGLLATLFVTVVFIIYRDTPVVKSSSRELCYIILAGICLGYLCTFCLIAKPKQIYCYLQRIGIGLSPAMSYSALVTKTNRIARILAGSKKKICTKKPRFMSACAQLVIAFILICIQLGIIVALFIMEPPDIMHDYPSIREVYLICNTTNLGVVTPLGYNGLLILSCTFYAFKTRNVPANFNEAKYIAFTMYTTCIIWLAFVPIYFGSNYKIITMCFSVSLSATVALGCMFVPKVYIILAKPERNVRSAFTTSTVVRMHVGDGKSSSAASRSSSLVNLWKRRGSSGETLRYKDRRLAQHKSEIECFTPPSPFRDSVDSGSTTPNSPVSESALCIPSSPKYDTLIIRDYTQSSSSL
Description: as §1, §2

T1 sequence (Q13255 19-1194): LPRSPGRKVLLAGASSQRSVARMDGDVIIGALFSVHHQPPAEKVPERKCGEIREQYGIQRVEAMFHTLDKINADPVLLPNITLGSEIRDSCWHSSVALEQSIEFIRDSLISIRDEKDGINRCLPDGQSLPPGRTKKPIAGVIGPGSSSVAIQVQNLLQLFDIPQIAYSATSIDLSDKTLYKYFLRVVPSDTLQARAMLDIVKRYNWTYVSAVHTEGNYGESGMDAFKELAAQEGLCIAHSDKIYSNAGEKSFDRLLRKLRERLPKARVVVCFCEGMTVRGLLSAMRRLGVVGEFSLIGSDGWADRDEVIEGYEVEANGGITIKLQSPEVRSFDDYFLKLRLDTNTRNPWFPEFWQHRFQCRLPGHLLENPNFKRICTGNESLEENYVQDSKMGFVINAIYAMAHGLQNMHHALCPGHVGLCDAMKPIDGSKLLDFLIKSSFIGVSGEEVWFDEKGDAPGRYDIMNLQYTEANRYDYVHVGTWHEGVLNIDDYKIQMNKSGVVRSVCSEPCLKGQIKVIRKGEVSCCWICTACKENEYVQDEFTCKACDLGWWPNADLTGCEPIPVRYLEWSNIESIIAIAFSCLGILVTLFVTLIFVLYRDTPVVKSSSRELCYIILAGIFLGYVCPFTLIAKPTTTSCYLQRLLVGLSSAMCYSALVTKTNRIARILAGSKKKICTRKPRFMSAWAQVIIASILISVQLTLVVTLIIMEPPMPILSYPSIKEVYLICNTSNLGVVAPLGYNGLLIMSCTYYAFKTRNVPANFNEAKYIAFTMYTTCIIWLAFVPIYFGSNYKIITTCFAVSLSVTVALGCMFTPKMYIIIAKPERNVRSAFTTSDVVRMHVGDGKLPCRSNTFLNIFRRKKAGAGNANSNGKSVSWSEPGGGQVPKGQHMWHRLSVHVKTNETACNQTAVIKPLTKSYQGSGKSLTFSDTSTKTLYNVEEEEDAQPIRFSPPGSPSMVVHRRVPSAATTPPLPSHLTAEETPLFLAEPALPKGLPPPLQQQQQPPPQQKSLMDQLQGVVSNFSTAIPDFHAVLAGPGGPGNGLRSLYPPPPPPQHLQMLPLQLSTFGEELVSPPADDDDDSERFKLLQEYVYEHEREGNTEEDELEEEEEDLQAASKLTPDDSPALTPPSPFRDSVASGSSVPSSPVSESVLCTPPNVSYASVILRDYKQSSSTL

SMILES: CC1CCc2nc(C(=O)N[C@H]3CC[C@H](C)CC3)cnc2C1 (relative stereo) [6-methyl-N-(trans-4-methylcyclohexyl)-5,6,7,8-tetrahydroquinoxaline-2-carboxamide]
- IC50 (recombinant mGluR1): 0.052 µM
- IC50 (human mGluR5d): 7.29 µM
